Counter-ions that a name gives are not always drawn.
Molecular target: T1, human HSD-1 (recombinant HSD-1) (Homo sapiens, UniProt P28845)
T1 construct: made in house
Experiment: HSD-1 activity inhibitory action in vitro (SPA, conversion of cortisone to cortisol)
Format: biochemical
Conditions: recombinant human HSD-1 expressed using baculovirus system; 10 nM 3H cortisone, 500 μM NADPH; room temperature 90 to 120 min; read-out: hHSD1 (IC50 (nM))

T1 sequence (P28845 whole entry): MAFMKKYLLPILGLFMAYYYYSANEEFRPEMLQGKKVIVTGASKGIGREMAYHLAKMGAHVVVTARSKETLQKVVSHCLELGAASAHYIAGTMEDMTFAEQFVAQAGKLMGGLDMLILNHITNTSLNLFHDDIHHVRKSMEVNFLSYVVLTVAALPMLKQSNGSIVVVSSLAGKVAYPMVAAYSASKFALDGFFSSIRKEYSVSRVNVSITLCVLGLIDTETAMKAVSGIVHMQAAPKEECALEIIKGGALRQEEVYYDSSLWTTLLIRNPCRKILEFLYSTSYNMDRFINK

IC50 [nM]	SMILES
< 30	CC(=O)N1CCC[C@H]1C(=O)N1CCC(n2ncc(C(=O)N3CC[C@@H](c4ccccc4C(F)(F)F)C3)c2C2CC2)CC1 [Example 89, 1-(1-{1-[(S)-1-acetylpyrrolidine-2-carbonyl]piperidin-4-yl}-5-cyclopropyl-1H-pyrazole-4-carbonyl)-[(S)-3-(2-trifluoromethylphenyl)]pyrrolidine]
< 30	CS(=O)(=O)NCC(=O)N1CCC(n2ncc(C(=O)N3CC[C@@H](c4ccccc4C(F)(F)F)C3)c2C2CC2)CC1 [Example 90, 1-{5-cyclopropyl-1-[1-(2-methanesulfonylaminoacetyl)piperidin-4-yl]-1H-pyrazole-4-carbonyl}-[(S)-3-(2-trifluoromethylphenyl)]pyrrolidine]
< 30	CC(=O)N1CCC(C(=O)N2CCC(n3ncc(C(=O)N4CC[C@@H](c5ccccc5C(F)(F)F)C4)c3C3CC3)CC2)CC1 [Example 91, 1-{1-[1-(1-acetylpiperidine-4-carbonyl)piperidin-4-yl]-5-cyclopropyl-1H-pyrazole-4-carbonyl}-[(S)-3-(2-trifluoromethylphenyl)]pyrrolidine]
< 30	NC(=O)CCC(=O)N1CCC(n2ncc(C(=O)N3CC[C@@H](c4ccccc4C(F)(F)F)C3)c2C2CC2)CC1 [Example 93, 1-{1-[1-(3-carbamoylpropionyl)piperidin-4-yl]-5-cyclopropyl-1H-pyrazole-4-carbonyl}-[(S)-3-(2-trifluoromethylphenyl)]pyrrolidine]
< 30	NC(=O)CN1CCC(n2ncc(C(=O)N3CC[C@@H](c4ccccc4C(F)(F)F)C3)c2C2CC2)CC1 [Example 94, 1-[1-(1-carbamoylmethylpiperidin-4-yl)-5-cyclopropyl-1H-pyrazole-4-carbonyl]-[(S)-3-(2-trifluoromethylphenyl)]pyrrolidine hydrochloride]
< 30	CNC(=O)CN1CCC(n2ncc(C(=O)N3CC[C@@H](c4ccccc4C(F)(F)F)C3)c2C2CC2)CC1 [Example 95, 1-[5-cyclopropyl-1-(1-methylcarbamoylmethylpiperidin-4-yl)-1H-pyrazole-4-carbonyl]-[(S)-3-(2-trifluoromethylphenyl)]pyrrolidine hydrochloride]
< 30	CC(C)(C(N)=O)N1CCC(n2ncc(C(=O)N3CC[C@@H](c4ccccc4C(F)(F)F)C3)c2C2CC2)CC1 [Example 96, 1-{1-[1-(1-carbamoyl-1-methylethyl)piperidin-4-yl]-5-cyclopropyl-1H-pyrazole-4-carbonyl}-[(S)-3-(2-trifluoromethylphenyl)]pyrrolidine hydrochloride]
< 30	NC(=O)CCN1CCC(n2ncc(C(=O)N3CC[C@@H](c4ccccc4C(F)(F)F)C3)c2C2CC2)CC1 [Example 97, 1-{1-[1-(2-carbamoylethyl)piperidin-4-yl]-5-cyclopropyl-1H-pyrazole-4-carbonyl}-[(S)-3-(2-trifluoromethylphenyl)]pyrrolidine hydrochloride]
< 30	O=C(c1cnn(C2CCN(C3CC3)CC2)c1C1CC1)N1CC[C@@H](c2ccccc2C(F)(F)F)C1 [Example 99, 1-[5-cyclopropyl-1-(1-cyclopropylpiperidin-4-yl)-1H-pyrazole-4-carbonyl]-[(S)-3-(2-trifluoromethylphenyl)]pyrrolidine hydrochloride]
< 30	CN(C)C(=O)CN1CCC(n2ncc(C(=O)N3CC[C@@H](c4ccccc4C(F)(F)F)C3)c2C2CC2)CC1 [Example 100, 1-[5-cyclopropyl-1-(1-dimethylcarbamoylmethylpiperidin-4-yl)-1H-pyrazole-4-carbonyl]-[(S)-3-(2-trifluoromethylphenyl)]pyrrolidine hydrochloride]
< 30	CC(C(N)=O)N1CCC(n2ncc(C(=O)N3CC[C@@H](c4ccccc4C(F)(F)F)C3)c2C2CC2)CC1 (stereo partly drawn) [Example 103, 1-{1-[1-(1-carbamoylethyl)piperidin-4-yl]-5-cyclopropyl-1H-pyrazole-4-carbonyl}-[(S)-3-(2-trifluoromethylphenyl)]pyrrolidine hydrochloride]
< 30	CC(C)(CN1CCC(n2ncc(C(=O)N3CC[C@@H](c4ccccc4C(F)(F)F)C3)c2C2CC2)CC1)C(N)=O [Example 105, 1-{1-[1-(2-carbamoyl-2-methylpropyl)piperidin-4-yl]-5-cyclopropyl-1H-pyrazole-4-carbonyl}-[(S)-3-(2-trifluoromethylphenyl)]pyrrolidine hydrochloride]
< 30	NC(=O)C1(CN2CCC(n3ncc(C(=O)N4CC[C@@H](c5ccccc5C(F)(F)F)C4)c3C3CC3)CC2)CC1 [Example 106, 1-{1-[1-(1-carbamoylcyclopropylmethyl)piperidin-4-yl]-5-cyclopropyl-1H-pyrazole-4-carbonyl}-[(S)-3-(2-trifluoromethylphenyl)]pyrrolidine hydrochloride]
< 30	O=C(c1cnn(C2CCN(CC3(C(=O)NCCO)CC3)CC2)c1C1CC1)N1CC[C@@H](c2ccccc2C(F)(F)F)C1 [Example 107, 1-(5-cyclopropyl-1-{1-[1-(2-hydroxyethylcarbamoyl)cyclopropylmethyl]piperidin-4-yl}-1H-pyrazole-4-carbonyl)-[(S)-3-(2-trifluoromethylphenyl)]pyrrolidine hydrochloride]
< 30	O=C(c1cnn(C2CCN(S(=O)(=O)C(F)(F)F)CC2)c1C1CC1)N1CC[C@@H](c2ccccc2C(F)(F)F)C1 [Example 108, 1-[5-cyclopropyl-1-(1-trifluoromethanesulfonylpiperidin-4-yl)-1H-pyrazole-4-carbonyl]-[(S)-3-(2-trifluoromethylphenyl)]pyrrolidine]
< 30	O=C(c1cnn(C2CCN(S(=O)(=O)CC(F)(F)F)CC2)c1C1CC1)N1CC[C@@H](c2ccccc2C(F)(F)F)C1 [Example 109, 1-{5-cyclopropyl-1-[1-(2,2,2-trifluoroethanesulfonyl)piperidin-4-yl]-1H-pyrazole-4-carbonyl}-[(S)-3-(2-trifluoromethylphenyl)]pyrrolidine]
< 30	C/C(=N\C#N)N1CCC(n2ncc(C(=O)N3CC[C@@H](c4ccccc4C(F)(F)F)C3)c2C2CC2)CC1 [Example 110, 1-{1-[1-(1-cyanoiminoethyl)piperidin-4-yl]-5-cyclopropyl-1H-pyrazole-4-carbonyl}-[(S)-3-(2-trifluoromethylphenyl)]pyrrolidine]
< 30	CN/C(=N\C#N)N1CCC(n2ncc(C(=O)N3CC[C@@H](c4ccccc4C(F)(F)F)C3)c2C2CC2)CC1 [Example 111, 1-(1-{1-[cyanoimino(methylamino)methyl]piperidin-4-yl}-5-cyclopropyl-1H-pyrazole-4-carbonyl)-[(S)-3-(2-trifluoromethylphenyl)]pyrrolidine]
< 30	N#C/N=C(\N)N1CCC(n2ncc(C(=O)N3CC[C@@H](c4ccccc4C(F)(F)F)C3)c2C2CC2)CC1 [Example 112, 1-{1-[1-(N-cyanocarbamimidoyl)piperidin-4-yl]-5-cyclopropyl-1H-pyrazole-4-carbonyl}-[(S)-3-(2-trifluoromethylphenyl)]pyrrolidine]
< 30	O=C(O)c1ccc(N2CCC(n3ncc(C(=O)N4CCC(c5ccccc5C(F)(F)F)C4)c3C3CC3)CC2)cc1 (centres unmarked) [Example 113, 4-(4-{5-cyclopropyl-4-[3-(2-trifluoromethylphenyl)pyrrolidine-1-carbonyl]pyrazol-1-yl}piperidin-1-yl)benzoic acid]

Reference: patent publication US20100010219A1, “METHOD FOR PRODUCING PYRROLIDINE COMPOUND” (JAPAN TOBACCO INC., priority 2006, published 2010)
